Data published in patent US9192161B2, “Fungicidal combinations comprising a dithiino-tetracarboxamide fungicide” (BAYER INTELLECTUAL PROPERTY GMBH, priority 2011, dated 2015).

Test system: Venturia inaequalis
Assay: Venturia test (apples)/preventive
Format: in vivo, Venturia inaequalis on apples
Conditions: preventive spray on young apple plants, evaluated 10 days after inoculation
Protocol: Venturia Test (Apples)/Preventive
• Solvent: 24.5 parts by weight of acetone • 24.5 parts by weight of dimethylacetamide • Emulsifier: 1 part by weight of alkylaryl polyglycol ether
To produce a suitable preparation of active compound, 1 part by weight of active compound is mixed with the stated amounts of solvent and emulsifier, and the concentrate is diluted with water to the desired concentration. To test for preventive activity, young plants are sprayed with the preparation of active compound at the stated rate of application. After the spray coating has dried on, the plants are inoculated with an aqueous conidia suspension of the causal agent of apple scab (Venturia inaequalis) and then remain for 1 day in an incubation cabinet at approximately 20° C. and a relative atmospheric humidity of 100%. The plants are then placed in a greenhouse at approximately 21° C. and a relative atmospheric humidity of approximately 90%. The test is evaluated 10 days after the inoculation. 0% means an efficacy which corresponds to that of the untreated control, while an efficacy of 100% means that no disease is observed.

| SMILES | Efficacy in % found (0.4 ppm a.i.) [%] | Efficacy in % found (20 ppm a.i.) [%] | Efficacy in % found (40 ppm a.i.) [%] |
| --- | --- | --- | --- |
| COC(c1ccc(Cl)cc1Cl)C(C)NC(=O)c1cn(C)nc1C(F)F (stereo not drawn) [(10), 3-(difluoromethyl)-1-methyl-1H-pyrazole-4-carboxylic acid [2-(2,4-dichlorophenyl)-2-methoxy-1-methyl-ethyl]-amide] | 18 | – | – |
| Cn1c(=O)c2sc3c(=O)n(C)c(=O)c3sc2c1=O [(I-1), 2,6-dimethyl-1H,5H-[1,4]dithiino[2,3-c:5,6-c′]dipyrrole-1,3,5,7(2H,6H)-tetrone] | – | 46 | 65 |
